The text below walks through data of patent US20070065485A1, “Therapeutic delivery of carbon monoxide” (priority 2003, published 2007).

The subject of data set [1] is deoxymyoglobin (Mb). The data set can be described thus: Detection of CO release: conversion of deoxymyoglobin (Mb) to carbonmonoxy myoglobin (MbCO). It counts as physicochemical. The method, then: The release of CO from CORM-A1 was assessed spectrophotometrically by measuring the conversion of deoxymyoglobin (Mb) to carbonmonoxy myoglobin (MbCO) by a method previously described^23. The amount of MbCO formed was quantified by measuring the absorbance at 540 nm (extinction coefficient=[…]) over time at 37° C. Myoglobin solutions (approximately 50 μmol/L final concentration) were prepared fresh by dissolving the protein in 0.04 M phosphate buffer (pH=7.4). Sodium dithionite (0.1%) was added to convert the oxidized myoglobin to its reduced form prior to each reading. Some experiments were also conducted using Mb at pH=5.5 or at room temperature (RT) in order to examine the kinetic of CO release from CORM-A1 under different chemical and physical conditions.
The amount of MbCO formed after addition of CORM-A1 to the Mb solution can be quantified by measuring the absorbance at 540 nm knowing the extinction coefficient for MbCO (ε=[…]). CORM-A1 at three different concentrations was added to a solution containing Mb at room temperature and the formed MbCO was calculated over time.

The subject of data set [2] is aortic rings pre-contracted with phenylephrine. The data set can be described thus: Isolated aortic ring preparation: vessel relaxation in rings pre-contracted with phenylephrine (3 μM). It counts as cell-based, male Lewis rats. As to conditions: for percentage of relaxation compared to control: after 10 min. The method, then:
Transverse ring sections of thoracic aorta were isolated from male Lewis rats and suspended under a 2 g tension in an organ bath containing oxygenated Krebs-Henseleit buffer at 37° C. in a manner previously described^10. The relaxation response to CORM-A1 (40, 80 and 160 μM) was assessed in aortic rings pre-contracted with phenylephrine (3 μM). […] Experiments were also conducted by comparing the effect of CORM-A1 and CORM-3 on vessel relaxation over time.

The test system is the same in data set [3]. The experiment in a line: Isolated aortic ring preparation: relaxation response to CORM-A1 in presence or absence of YC-1, phenylephrine 1 μmol/L. It counts as cell-based, male Lewis rats. The method, then: Transverse ring sections of thoracic aorta were isolated from male Lewis rats and suspended under a 2 g tension in an organ bath containing oxygenated Krebs-Henseleit buffer at 37° C. in a manner previously described. […] YC-1 was added to the isolated rings 30 min prior to contraction with phenylephrine.

Data set [4] concerns mean arterial pressure (MAP). The experiment in a line: Effect of CORM-A1 and YC-1 on mean arterial pressure (MAP) in anaesthetised rats. It counts as in vivo, Lewis rats. The method, then: Lewis rats (280-350 g) were anaesthetised by intramuscular injection of 1 ml/kg Hypnorm. Specially designed femoral artery and venous catheters were then surgically implanted and mean arterial pressure (MAP) monitored continuously using a polygraph recorder in a manner previously described. The effect of CORM-A1 on mean arterial pressure (MAP) over time was assessed following an intravenous (i.v.) injection of 50 μmol kg^−1. Similar experiments were conducted by administering YC-1 (1.2 μmol kg^−1, i.v.) to animals 5 min prior to the bolus addition of CORM-A1. Control experiments using YC-1 alone were also performed.
Femoral artery and venous catheters were surgically implanted into anesthetized Lewis rats and blood pressure continuously monitored as previously described by us. The effect of CORM-A1 and YC-1 on mean arterial pressure (MAP) in vivo is represented in FIG. 11. The compounds were injected intravenously as a bolus at a final concentration of 50 μmoles/kg for CORM-A1 and 1.2 μmol kg^−1 for YC-1. When the two compounds were given in combination, YC-1 was administered 10 min prior to CORM-A1 injection. As shown, CORM-A1 produced a gradual and sustained decrease in MAP over time; for instance, 60 min after CORM-A1 injection MAP decreased by 6.3±1.5 mmHg from the initial baseline value. Injection with YC-1 alone also produced an effect on blood pressure; however, the decrease in MAP was only transient, reaching a maximum of 5.5±1.0 mmHg after 10 min and returning to basal levels 50 min after injection. […] The data are represented as the mean±s.e.m. of 5 independent experiments for each group. *P<0.05 vs. baseline (−10 min); ^⇑P<0.05 vs. CORM-A1 alone or YC-1 alone.

For data set [5] the following is noted: distilled water at basic pH; cited from earlier work.
For data set [6], the system named is deoxymyoglobin (Mb). As to conditions: cited from earlier work.

Where two headings read alike, the source gives them in different places.

As for `[BH3-]C(=O)[O-].[Na+].[Na+]` [CORM-A1, Disodium boranocarbonate], the “calculated Ymax of MbCO formed” value was 16.7±1.2 in data set [1] (15.6 μM CORM-A1, room temperature); 33.1±1.4 in data set [1] (31.1 μM CORM-A1, room temperature); 48.2±2.5 in data set [1] (46.7 μM CORM-A1, room temperature). Besides, the “conversion of Mb to MbCO” value in data set [1] (60 μM, pH=7.4, 37° C., MbCO spectrum after 210 min incubation) is “gradual formation of MbCO over time”. The “CO liberated per mole of compound” value in data set [1] (aqueous solution, room temperature, reaction to completion) is “one mole of CO per mole of compound”. The “release of CO at physiological pH” value in data set [1] (physiological pH) turned out to be 18.4 min. In addition, the figures for the “percentage of relaxation compared to control” value in data set [2] (40 μM), in data set [2] (80 μM) and in data set [2] (160 μM) were 21.0±2.3%, 40.2±3.4% and 74.9±1.8%, respectively. Also, the “time after addition at which the stated relaxation was reached” value in data set [2] (80 μM) was found to be 33 min. Moreover, the “vasorelaxation (in words)” value in data set [2] (80 μM) is “gradual and profound vasorelaxation”. The compound further came in with a maximal vasorelaxation in data set [2] (80 μM, 33 min following addition) of 96%. Further, the relaxation in data set [3] (1 μM CORM-A1, vessels pre-treated with YC-1) is on record as 35±9.8%; in data set [3] (10 μM CORM-A1, vessels pre-treated with YC-1), 51±3.3%; in data set [3] (20 μM after pre-treatment of vessels with YC-1 (1 μM)) it was 61±6.2%; in data set [3] (20 μM alone, after 20 min), 13±4.9%. Besides, the “decrease in MAP from initial baseline” value in data set [4] (50 μmoles/kg i.v. bolus, 60 min after injection) is 6.3±1.5 mmHg. Further, the “decrease in MAP” value in data set [4] (CORM-A1 50 μmoles/kg i.v. in combination with YC-1 1.2 μmol kg^−1 given 10 min prior, after 10 min) is on record as 16.1±5.6 mmHg. For the same compound, the stability in water entry in data set [5] was “relatively stable”.

For the compound `[BH4-].[Na+]` [NaBH4, Sodium borohydride, reference compound], in data set [2] (80 μM), the “vasorelaxation (in words)” value is given as “totally ineffective”.

As for `NCC(=O)O.[CH+]=O.[CH+]=O.[CH+]=O.[Cl][Ru]` [CORM-3, Tricarbonylchloro(glycinato)ruthenium(II)], the “time after addition at which the stated relaxation was reached” value in data set [2] (80 μM) is 4 to 5 min. In data set [2] (80 μM, within 4-5 min), the relaxation is 75%. Besides, the “time in which CO is liberated to Mb” value in data set [6] (added to a solution containing myoglobin (Mb), 1 mole CO per mole compound) is 1 to 2 min. The “CO liberated per mole of compound” value in data set [6] (added to a solution containing myoglobin (Mb), within 1-2 min) is listed as 1 mole of CO per mole of compound. For the same compound, the “time of liberation of CO to Mb or in biological systems” value in data set [6] (from recent works) is on record as “approximately 5 min”.

As to `OCc1ccc(-c2nn(Cc3ccccc3)c3ccccc23)o1` [YC-1, 3-(5′-hydroxymethyl-2′-furyl)-1-benzyl-indazole, reference compound], in data set [3] (YC-1 alone (1 μM), after 20 min), the relaxation was 2.8±1.1%. For the same compound, the “maximum decrease in MAP” value in data set [4] (YC-1 alone 1.2 μmol kg^−1 i.v., after 10 min) is listed as 5.5±1.0 mmHg. For the same compound, the “time to return of MAP to basal levels” value in data set [4] (YC-1 alone 1.2 μmol kg^−1 i.v., after injection) came out at 50 min.
